Measurements from patent US20250074943A1, “DLL3 BINDING PEPTIDES AND USES THEREOF” (AMGEN INC., priority 2021, published 2025).
Bridge positions count the residues as written; N and C are the ends. Peptide text beside a SMILES is read from it. * marks the point of attachment. X11 = NCCCC[C@H](NC(=O)CCC(=O)NCCCOCCOCCOCCCN*)C(N)=O

What was measured:
[1] = molecular target: T1, cell-surface hDLL3 (CHO cells) (Homo sapiens, UniProt Q9NYJ7); assay: Flow cytometry binding of fluorescence labelled peptides; assay type: cell-based; conditions: 100 nM AF647-labelled peptide; FIG. 1
T1 construct: expressed in transfected cells; host or cells: CHO (CHO-huDLL3)
T1 sequence (Q9NYJ7 27-618): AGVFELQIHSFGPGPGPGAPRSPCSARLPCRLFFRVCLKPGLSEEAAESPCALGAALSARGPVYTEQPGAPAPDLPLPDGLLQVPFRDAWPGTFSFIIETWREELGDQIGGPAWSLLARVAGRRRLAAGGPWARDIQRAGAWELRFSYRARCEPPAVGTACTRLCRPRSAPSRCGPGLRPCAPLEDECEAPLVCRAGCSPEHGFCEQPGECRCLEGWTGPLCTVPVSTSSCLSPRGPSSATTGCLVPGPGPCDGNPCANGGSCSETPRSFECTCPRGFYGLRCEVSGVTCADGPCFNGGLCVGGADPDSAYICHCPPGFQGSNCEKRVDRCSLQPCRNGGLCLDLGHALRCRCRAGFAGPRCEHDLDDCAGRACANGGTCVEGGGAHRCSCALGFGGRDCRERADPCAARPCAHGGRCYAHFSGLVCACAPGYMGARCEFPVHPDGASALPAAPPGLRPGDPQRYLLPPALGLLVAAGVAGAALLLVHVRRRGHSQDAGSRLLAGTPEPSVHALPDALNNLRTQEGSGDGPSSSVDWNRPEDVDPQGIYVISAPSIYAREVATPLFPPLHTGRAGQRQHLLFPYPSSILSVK
Experimental: HEK293-huDLL3, CHO-huDLL3 and the corresponding parental cell lines were detached with EDTA 2.5 mM and re-suspended at 1.8×10^6 cells/ml in FACS buffer (1×PBS, 2% FBS), distributed at 500 μl per testing tube and pelleted 5 min at 1300 rpm in a Heraeus Multifuge X3R centrifuge. […] After 1 hour incubation at room temperature, cells were washed once with FACS buffer, centrifuged and re-suspended in FACS buffer/1% formaldehyde. Samples were acquired on a FACS ARIA flow cytometer (Becton Dickinson) and data analysed by FACS Express software.

[2] = molecular target: T2, DLL3 (Homo sapiens, UniProt Q9NYJ7); assay: Binding of peptides with linkers and/or fluorescent agent to DLL3 (BLI, SPR; Table 6)
T2 construct: The recombinant DLL3 ectodomain (rhDLL3-Fc) was biotinylated; Fc
T2 sequence (Q9NYJ7 27-492 limits assumed): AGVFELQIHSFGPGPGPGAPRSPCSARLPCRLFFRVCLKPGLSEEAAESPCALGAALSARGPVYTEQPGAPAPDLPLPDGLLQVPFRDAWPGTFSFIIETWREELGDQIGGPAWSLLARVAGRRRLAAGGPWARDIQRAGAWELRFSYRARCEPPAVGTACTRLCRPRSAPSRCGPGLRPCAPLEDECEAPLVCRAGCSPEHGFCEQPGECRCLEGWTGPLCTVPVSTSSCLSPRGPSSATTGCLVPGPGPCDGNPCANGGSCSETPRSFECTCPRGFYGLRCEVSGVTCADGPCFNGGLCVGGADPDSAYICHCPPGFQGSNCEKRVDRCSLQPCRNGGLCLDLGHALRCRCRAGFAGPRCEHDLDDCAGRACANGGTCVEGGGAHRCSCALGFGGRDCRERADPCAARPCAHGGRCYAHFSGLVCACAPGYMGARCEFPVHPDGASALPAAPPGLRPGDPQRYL
Experimental: Binding kinetic assays were performed using Bio-layer interferometry (BLI) technology. The recombinant DLL3 ectodomain (rhDLL3-Fc) was biotinylated using EZ-Link Sulfo-NHS-LC-LC-Biotin Kit according to the manufacturer's protocol (Pierce by Thermo Fisher Scientific). The recombinant protein was incubated with an excess of NHS-LC-LC Biotin ester, in a molar ratio of 1:3 (protein: biotin), at 25° C. for 90 min. The un-reacted biotin ester was removed by subsequent buffer exchange on 0.5 ml Zeba spin desalting columns 7K MWCO (Pierce by Thermo Fisher Scientific).
The off-rate screening of the peptides was done using a Biacore T200 instrument (Cytiva, Sweden). […] Peptides were diluted at 300 nM in PBS-P+1× buffer (Cytiva, Sweden) supplemented with 1% DMSO and 0.1% BSA, then injected over the ligand for five minutes at 30 μl/min, finally dissociation allowed for 1 h. Sensorgrams were analyzed by Biacore T200 Evaluation Software 3.0 (Cytiva, Sweden): specific binding was obtained by subtracting unspecific binding to naked biosensors and a zero analyte concentration made of binding assay buffer (double referencing). Kinetic parameters of koff were measured using a global fitting according to 1:1 Langmuir binding isotherm equation.

CC(C)[C@H](NC(=O)[C@@H](NC(=O)[C@H](CCC(=O)O)NC(=O)[C@H](C)N)[C@@H](C)O)C(=O)N[C@@H](CCC(=O)O)C(=O)N[C@@H](Cc1ccccc1)C(=O)N[C@@H](Cc1c[nH]c2ccccc12)C(=O)NCC(=O)N[C@H]1CSSC[C@@H](C(=O)N[C@@H](Cc2c[nH]c3ccccc23)C(=O)N[C@@H](Cc2c[nH]c3ccccc23)C(=O)NCCCOCCOCCOCCCNC(=O)CCC(=O)N[C@@H](CCCCn2nnc3c2-c2ccccc2CN(C(=O)CCNC(=O)CCCCC[N+]2=C(/C=C/C=C/C=C4/N(CCCS(=O)(=O)O)c5ccc(S(=O)(=O)O)cc5C4(C)C)C(C)(CCCS(=O)(=O)O)c4cc(S(=O)(=O)[O-])ccc42)c2ccccc2-3)C(N)=O)NC(=O)[C@H]([C@@H](C)O)NC(=O)[C@H](CCC(=O)O)NC(=O)[C@H](CC(N)=O)NC(=O)CNC(=O)[C@H](Cc2c[nH]c3ccccc23)NC(=O)[C@H]([C@@H](C)O)NC(=O)CNC(=O)[C@H]([C@@H](C)O)NC1=O (stereo partly drawn) [PepSP1215]
binding to cells expressing hDLL3 [1]: binding
Kd [2]: 11.6 nM

CC(=O)N[C@@H](C)C(=O)N[C@@H](CCC(=O)O)C(=O)N[C@H](C(=O)N[C@H](C(=O)N[C@@H](CCC(=O)O)C(=O)N[C@@H](Cc1ccccc1)C(=O)N[C@@H](Cc1c[nH]c2ccccc12)C(=O)NCC(=O)N[C@H]1CSSC[C@@H](C(=O)N[C@@H](Cc2c[nH]c3ccccc23)C(=O)N[C@@H](Cc2c[nH]c3ccccc23)C(=O)NCC(=O)NCC(=O)NCCCOCCOCCOCCCNC(=O)CCC(=O)N[C@@H](CCCCN)C(N)=O)NC(=O)[C@H]([C@@H](C)O)NC(=O)[C@H](CCC(=O)O)NC(=O)[C@H](CC(N)=O)NC(=O)CNC(=O)[C@H](Cc2c[nH]c3ccccc23)NC(=O)[C@H]([C@@H](C)O)NC(=O)CNC(=O)[C@H]([C@@H](C)O)NC1=O)C(C)C)[C@@H](C)O [PepSP1321] (Ac-AETVEFWGCTGTWGNETCWWGG-X11; disulfide 9-18)
RT [2]: 369
